Assay results as given in patent US10487054B2, “Therapeutic compounds” (REGENTS OF THE UNIVERSITY OF MINNESOTA, priority 2017, dated 2019).

Legend:
[1] = tested on: AP-1 activity in JB6 P+ cells; assay: AP-1 luciferase reporter assay, SUV-induced; type: cell-based, mouse; conditions: JB6 P+ cells, 1.25, 2.5 or 5 μM, dose-dependently
Procedure: The cells were cultured, treated for 4 h with different concentrations of compound 1 and then exposed to SUV (60 kJ UVA/m^2 and 2.9 kJ UVB/m^2), followed by an additional 15-minute incubation. Cells were harvested and the levels of phosphorylated and total proteins were determined by Western blot analysis with specific antibodies as indicated. […] The cells were cultured and treated with different concentrations of compound 1 for 24 h. Cells were harvested and the levels of phosphorylated and total proteins were determined by Western blot analysis with specific antibodies as indicated. […] For the luciferase assay, JB6 P+ cells stably transfected with an AP-1 luciferase reporter plasmid were cultured. After starvation for 24 h, cells were treated for 1 h with compound 1 (0, 1.25, 2.5, or 5 μM). Cells were then exposed to SUV (60 kJ UVA/m^2 and 2.9 kJ UVB/m^2) and harvested 3 h later. Luciferase activity was measured and AP-1 activity is expressed relative to control cells without SUV treatment. […] Knockdown of TOPK in A431 cell line (left). […] Luciferase and 3-galactosidase activities were measured using reagents included in the reporter assay system (right). […] Significant differences were evaluated using one-way ANOVA and the asterisks (*) indicate a significant effect (*, p<0.05; **, p<0.001; ***, p<0.0001). […]

SKH-1 hairless mice = assay: SUV-induced mouse skin tumorigenesis, late-stage prevention model; type: in vivo
Procedure: Tumor volume was calculated according to the following formula: tumor volume (mm^3)=length×width×height×0.52. […] For 5B and 5C, data are represented as mean values±S.D. and differences were determined by one-way ANOVA. The asterisk (*) indicates a significant decrease compared to the group exposed to SUV only or the group treated with vehicle followed by SUV (***, p<0.001). […] Dorsal trunk skin samples were harvested and stained with H&E (left panels) or with an antibody to detect PCNA (right panels). […] Expression of PCNA was quantified using Image-Pro Plus software and stained cells were counted from 5 separate areas on each slide (lower panel). An average of 3 samples was calculated per group. Data are expressed as mean percent of control±S.D. and the asterisks indicate a significant difference in PCNA expression (***, p<0.001). […] The expression levels of phosphorylated and total proteins were analyzed by Western blot.
Mice were weighed once a week until week 28. […] SKH-1 hairless mice were treated as described in Materials and Methods. The mice in the control groups (n=9) received no vehicle/no SUV (n=3), vehicle/no SUV (n=3), or 1 mg compound 1/no SUV (n=3), respectively. The mice in the rest of the groups received SUV irradiation for 15 weeks 3 times a week. The mice in the vehicle/SUV-treated group (n=12) were treated with oil-in-water emulsion cream 3 times a week until the end of the experiment (28 weeks). The mice in the 0.1 mg/SUV or 1 mg/SUV groups (n=12 each) received treatment with compound 1 (0.1 or 1 mg, respectively) 3 times a week until the end of the experiment (28 weeks). The respective doses of oil-in-water emulsion cream or compound 1 were applied topically to the dorsal area. Tumor incidence and multiplicity were recorded weekly until the end of the experiment at week 28.
Female SKH-1 hairless mice were purchased from Charles River and were acclimated for 2 weeks before the study and had free access to food and water. All animals were maintained according to the guidelines approved by the University of Minnesota Institutional Animal Care and Use Committee (IACUC). The animals were housed in climate-controlled quarters with a 12-h light/dark cycle. The skin carcinogenesis experiments were conducted using 6-8 wk old mice with a mean body weight of 25 g. Skin carcinogenesis was induced by a solar simulated ultraviolet irradiation system. The SUV irradiation source (Q-Lab Corporation, Westlake, Ohio) emitted at wavelengths of 295 to 365 nm and the peak emission was 340 nm.
For the late-stage prevention model, the control and experimental groups were identical to those for the early prevention model. However, the experimental groups of mice were exposed to SUV irradiation 3 times a week for 15 weeks without application of vehicle or compound 1 in vehicle. At the end of 15 weeks, SUV exposure was stopped and application of vehicle with or without compound 1 was begun and continued for 13 weeks until week 28 at which time the study was discontinued and mice euthanized and tissues harvested.
At week 1, mice were irradiated with SUV at a dose of 36 kJ/m^2 UVA and 1.8 kJ/m^2 UVB. At week 6, the dose of SUV reached 60 kJ/m^2 UVA and 2.9 kJ/m^2 UVB and this dose was maintained from week 6 to week 15. The respective doses of vehicle or compound 1 were applied topically to the dorsal area. Mice were weighed and tumors were measured once a week until week 28 or when tumor load reached 1 cm^3 total volume. At that time mice were euthanized and one-half of each sample was immediately fixed in 10% formalin and processed for hematoxylin and eosin (H&E) staining and immunohistochemistry. The other one-half of the sample was frozen and used for Western blot analysis.
Skin tissues were embedded in paraffin and subjected to immunohistochemistry. Tissues were de-paraffinized and hydrated and then permeabilized with 0.5% Triton X-100/1×PBS for 10 min. […]

[2] = late-stage model, topical 0.1 or 1 mg, vs vehicle-treated group, 28 weeks

For O=C1Nc2ccc(C34CC5CC(CC(C5)C3)C4)cc2C1=NO [compound 1, 5-(adamantan-1-yl)-3-(hydroxyimino)indolin-2-one], the “SUV-induced transactivation of AP-1” value [1] was “inhibited”, the epidermal thickness (SKH-1 hairless mice; late-stage model, H&E) was “dramatically decreased” and the “formation of SCCs” value (SKH-1 hairless mice; late-stage model, H&E) was “inhibited”. The “SUV-induced phosphorylation of ERK1/2, p38, and JNKs in mouse skin” value (SKH-1 hairless mice; late-stage model, Western blot) was “dramatically suppressed”, the “expression of PCNA” value (SKH-1 hairless mice; late-stage model, immunohistochemistry of skin) was “decreased” and the tumor multiplicity (SKH-1 hairless mice; [2]) was “significantly reduced”. The tumor volume (SKH-1 hairless mice; [2]) was “significantly reduced”, the malignancy rate (SKH-1 hairless mice; late-stage model, vs vehicle-treated mice) was “significantly decreased” and the SUV-induced tumor incidence (SKH-1 hairless mice; late-stage prevention group) was “substantial suppression”. The body weight (SKH-1 hairless mice; topical application on dorsal skin, late-stage model, to week 28) was “no effect on body weight”.
